In patent US20230310440A1, “RESPIRATORY STIMULANT NASAL FORMULATIONS” (Enalare Therapeutics Inc., priority 2022, published 2023):

Tests used:
Format in all cases: physicochemical
[1] = Drug substance stability (API in closed Type I glass vials at 40° C. and 60° C.)
Procedure: Methodology: Approximately 100 mg of the API (Lot 009M9B058) were stored at each of 40° C. and 60° C. in closed Type I glass vials. Samples were analyzed for appearance and percent purity at T0 and after 1 week, 2 weeks and 4 weeks of storage.
Visually, there were no signs of degradation (i.e. discoloration etc.).

[2] = pH solubility study (100 mM citric acid, titrated with NaOH, shaken overnight at room temperature, filtered, HPLC); details: for Cmp. A.H2SO4 Concentration: no excess solid, not saturation solubility
Procedure: A pH solubility study was performed to assess the feasibility of formulating a compound having Formula (I) as a simple buffered solution at a reasonable pH for a nasal formulation.
Methodology: A compound having Formula (I) and H2SO4 solution of concentration ˜107 mg/mL in 100 mM citric acid at pH 2.5 was prepared. About 150 μL aliquots of this solution were transferred into 6 separate glass HPLC vials. All the samples, including the solution at pH 2.5, were shaken overnight at room temperature using a gyratory shaker. After shaking, the samples were evaluated visually for the presence of precipitate and were then spin filtered through 0.45 μm syringe tip filters (4 mm diameter) at 3000 rpm for 20 min. The final pH values of the filtrates were measured. The filtrates were then diluted appropriately and analyzed for compound having Formula (I). H2SO4 concentration using the HPLC assay.
Results: The pH values of the samples prior to and after shaking overnight, appearance as well as concentrations of samples are shown in Table 12.

[3] = Stability as a function of pH, narrow range (pH 2-3.6, ~10 mM citric acid and glycine buffers, 1 mg/mL); details: Target pH 2.0; 40° C. Storage 4 wk; listed as Cmp. A
Procedure: Accordingly, the stability of the compound was evaluated in the pH range 2-3.6.
Methodology: Buffer solutions containing ˜10 mM each of citric acid and glycine in the pH range 2-3.6 were prepared by titrating 250 mL of a single stock containing both buffer agents with 1N NaOH/1N HCl and removing 50 mL aliquots at predetermined pH values. Solutions at 1 mg/mL were prepared in the buffers by dissolving ˜25 mg of compound in ˜23 mL of a given buffer, adjusting the pH to the target and making up the volume to 25.0 mL in a volumetric flask.
Each of the buffered solutions was filtered through a […] polyether sulfone syringe filter into a volumetric flask previously rinsed with 70% ethanol and dried in a laminar flow hood. Following filtration, each buffered solution was split into 9 aliquots in 5 mL serum vials previously rinsed with 70% ethanol and dried in a laminar flow hood. Filtration and preparation of aliquots were performed in a laminar flow hood. Of the nine aliquots, three aliquots were stored at each 40° C. and 60° C., two aliquots were stored at 25° C. and one aliquot was submitted for T0 testing. Samples were evaluated for pH, assay and related substances at TO and, following 1 week, 2 weeks and 4 weeks of storage at 40° C. and 60° C. Samples stored at 25° C. served as controls to be analyzed if necessary. […]

| Stability of the API on storage (in words) ([1]; 4 weeks, even at 60° C.) | Purity (%) ([1]; 40° C., T = 1 week) | Purity (%) ([1]; 40° C., T = 2 week) | Purity (%) ([1]; 40° C., T = 4 week) | Purity (%) ([1]; 60° C., T = 1 week) | Purity (%) ([1]; 60° C., T = 2 week) | Purity (%) ([1]; 60° C., T = 4 week) | Purity (%) ([1]; T = 0) | Final pH after Shaking and Filtration ([2]; Target pH 2.5, Initial pH 2.51) | Cmp. A.H2SO4 Concentration ([2]; Target pH 2.5, Initial pH 2.51) [mg/mL] | Final pH after Shaking and Filtration ([2]; Target pH 3.0, Initial pH 3.05) | Cmp. A.H2SO4 Concentration ([2]; Target pH 3.0, Initial pH 3.05) [mg/mL] | Final pH after Shaking and Filtration ([2]; Target pH 3.5, Initial pH 3.51) | Cmp. A.H2SO4 Concentration ([2]; Target pH 3.5, Initial pH 3.51) [mg/mL] | Final pH after Shaking and Filtration ([2]; Target pH 4.0, Initial pH 4.00) | Final pH after Shaking and Filtration ([2]; Target pH 4.5, Initial pH 4.55) | Final pH after Shaking and Filtration ([2]; Target pH 5.0, Initial pH 4.93) | Final pH after Shaking and Filtration ([2]; Target pH 5.5, Initial pH 5.63) | Assay [3] | Structure (SMILES) |
| --- | --- | --- | --- | --- | --- | --- | --- | --- | --- | --- | --- | --- | --- | --- | --- | --- | --- | --- | --- |
| quite stable | 99.92 | 99.90 | 100.00 | 99.76 | 100.00 | 100.00 | 100.00 | 2.42 | 104.1 | 3.00 | 99.8 | 3.51 | 101.6 | 3.79 | 4.37 | 4.52 | 5.02 |  | CCCNc1nc(NCCC)nc(N(C)OC)n1 [Cmp. A.H2SO4, N-(4,6-Bis-n-propylamino-[1,3,5]triazin-2-yl)-O,N-dimethyl-hydroxylamine] |
|  |  |  |  |  |  |  |  |  |  |  |  |  |  |  |  |  |  | 0956 | CCCNc1nc(NCCC)nc(N(C)OC)n1 [Compound A, N-(4,6-Bis-n-propylamino-[1,3,5]triazin-2-yl)-O,N-dimethyl-hydroxylamine] |
